Source: patent US4363793A, “Diagnostic radiopharmaceuticals for localization in target tissues exhibiting a regional pH shift relative to surrounding tissues” (State University of New York, priority 1980, dated 1982)

Legend:
[1] = n-octanol-aqueous medium partition coefficient pH correlation; type: physicochemical; settings: for partition coefficient / lipid solubility at the pH of the blood (in words): pH 7.4, morpholinoethyl vs piperidinoethyl selenide
Excerpt: The n-octanol-aqueous medium partition coefficients of the compound are readily measured in accordance with standard practice in the prior art. Briefly, such measurements include the steps of dissolving a known amount of the compound in an aqueous buffer of a predetermined pH and extracting the buffer solution with a known amount of n-octanol until an equilibrium of distribution of the compound between the aqueous and n-octanol phases occurs. The concentration of the compound in both phases is then measured by suitable analytical means, such as ultraviolet spectrophotometry; the partition coefficient being the ratio of the two measured concentrations.
For the purposes of evaluating a plurality of radioactive compounds for use in the novel method of the present invention, the n-octanol-aqueous medium partition coefficients of the compounds were measured in the following manner. The radioactive compound was mixed with 1.0 ml of n-octanol and 1.0 ml of buffer of the desired predetermined pH. The radioactivity of this mixture was counted, and the mixture was placed in a water bath shaker at 37° C. for 2 hours. After centrifugation at 3,000 rpm for 5 minutes, the n-octanol layer was separated and its radioactivity counted. The partition coefficient of the compound was calculated by the following equation: [formula]

[2] = Organ distribution of Se-75 labeled compound in rats after intravenous injection; type: in vivo, Spraque-Dawley male rats; settings: rat; for penetration of the blood brain barrier (in words) / % dose/organ, heart / % dose/organ, kidney / % dose/organ, liver / % dose/organ, lung(2) / % dose/organ, pancreas / % dose/organ, spleen / % dose/organ, brain (brain uptake) / % dose/organ, blood / % dose/organ, muscle: i.v.; for % dose/organ, blood: blood assumed 7% of body weight; for % dose/organ, muscle: muscle assumed 40% of body weight
Excerpt: FIGS. 2 and 3 respectively show the relative concentration of Se-75 labeled di-β-(piperidinoethyl)-selenide and di-β-(morpholinoethyl)-selenide in rat brains at several time intervals after an intravenous injection of a dose of the respective compounds into the rat. As is shown in FIG. 3, and also in Table 4, two minutes after an intravenous injection of Se-75 labeled di-β-(morpholinoethyl)-selenide, the brain uptake of the radiopharmaceutical compound reaches a value of 3.19%. […] The terms uptake, % uptake or % dose are used to describe the percentage of the radiopharmaceutical compound contained in a given organ or tissue as compared to the total initial dose. The numerical values in FIGS. 2 and 3 and Tables 3 and 4 represent such percentages.
Studies of distribution of the radiopharmaceutical compounds of the present invention in rats, the results of which are reflected in FIGS. 2 and 3 and Tables 3 and 4, were conducted according to standard practice in the pharmacological sciences, and therefore need not be described here in great detail. Nevertheless, for the sake of complete understanding of the present invention, some experimental details of these studies are briefly described below:
Spraque-Dawley male rats (220-300 g) were injected intravenously (femoral vein) with a 0.2 ml solution (0.5-2 micro Ci) under light ether anaesthesia. At different time periods after the injection, the animals were sacrificed and organs of interest were excised and counted in a well counter. Percent dose was estimated by comparison of tissue counts to suitably diluted aliquots of the injected material. Total activities in blood and muscle were calculated by assuming that they are 7% and 40% of the body weight respectively.

[3] = Brain imaging study on rhesus monkey (Cleon 710 ECAT scanner); type: in vivo, rhesus monkeys; settings: 5.3 kg monkey, 1 mCi injected, images 15 minutes to 2 hours
Protocol: In addition to the above described organ and tissue distribution studies in rats of the several compounds of the present invention, brain imaging studies were also conducted on rhesus monkeys using a Cleon 710 ECAT scanner.
A 5.3 kg monkey, lightly sedated with Ketalar, was injected with 1 mCi of di-β-(morpholinoethyl)-selenide, (specific activity 1 mCi/mg). Five minutes later the monkey was anaesthetized with pentabarbital. A series of tomographic images was taken at roughly 1/2" intervals starting at the vertex. The first image was started 15 minutes after injection and various images were recorded up to 2 hours after injection. Each image contained approximately one million counts. At the conclusion of the imaging experiment, the monkey was killed and the brain was assayed in the dose calibrator used for measuring the injected dose. No correction was applied for the change in geometry between the syringe and the monkey brain. The weight of the brain was 84 g.

[4] = cited from earlier work
[5] = 2 min (morpholinoethyl: average of 5 samples)

C1CN(CC[75Se]CCN2CCOCC2)CCO1 [di-β-(morpholinoethyl)-selenide]
partition coefficient / lipid solubility at the pH of the blood (in words) [1]: higher partition coefficient at the pH of the blood (7.4) than di-β-(piperidinoethyl)-selenide
decrease of brain content (% dose) (in words) ([2]; after intravenous injection): decreases much more rapidly after the intravenous injection than that of di-β-(piperidinoethyl)-selenide
penetration of the blood brain barrier (in words) [2]: capable of penetrating the blood brain barrier
% dose/organ, heart ([2]; 2 min): 0.45%
% dose/organ, kidney ([2]; 2 min): 9.89%
% dose/organ, liver ([2]; 2 min): 18.3%
% dose/organ, lung(2) ([2]; 2 min): 2.77%
% dose/organ, pancreas ([2]; 2 min): 0.88%
% dose/organ, spleen ([2]; 2 min): 0.68%
% dose/organ, brain (brain uptake) [2, 5]: 3.19%
% dose/organ, blood ([2]; 2 min): 3.13%
% dose/organ, muscle ([2]; 2 min): 10.5%
% dose/organ, brain (brain uptake) ([2]; 5 min): 2.80%
% dose/organ, kidney ([2]; 5 min): 7.46%
% dose/organ, liver ([2]; 5 min): 19.7%
% dose/organ, spleen ([2]; 5 min): 0.87%
% dose/organ, blood ([2]; 5 min): 2.72%
% dose/organ, muscle ([2]; 5 min): 15.0%
% dose/organ, brain (brain uptake) ([2]; 15 min (average of 6 rats)): 2.23%
% dose/organ, kidney ([2]; 15 min (average of 6 rats)): 4.04%
% dose/organ, liver ([2]; 15 min (average of 6 rats)): 22.1%
% dose/organ, spleen ([2]; 15 min (average of 6 rats)): 1.23%
% dose/organ, blood ([2]; 15 min (average of 6 rats)): 2.26%
% dose/organ, muscle ([2]; 15 min (average of 6 rats)): 19.4%
% dose/organ, brain (brain uptake) ([2]; 30 min): 1.53%
% dose/organ, heart ([2]; 30 min): 0.22%
% dose/organ, kidney ([2]; 30 min): 4.03%
% dose/organ, liver ([2]; 30 min): 23.3%
% dose/organ, lung(2) ([2]; 30 min): 1.79%
% dose/organ, pancreas ([2]; 30 min): 0.38%
% dose/organ, spleen ([2]; 30 min): 1.55%
% dose/organ, blood ([2]; 30 min): 2.82%
% dose/organ, muscle ([2]; 30 min): 14.4%
% dose/organ, brain (brain uptake) ([2]; 1 hr): 1.19%
% dose/organ, kidney ([2]; 1 hr): 4.30%
% dose/organ, liver ([2]; 1 hr): 29.9%
% dose/organ, blood ([2]; 1 hr): 2.61%
% dose/organ, muscle ([2]; 1 hr): 13.6%
% dose/organ, brain (brain uptake) ([2]; 2 hr): 0.56%
% dose/organ, heart ([2]; 2 hr): 0.18%
% dose/organ, kidney ([2]; 2 hr): 3.42%
% dose/organ, liver ([2]; 2 hr): 21.7%
% dose/organ, lung(2) ([2]; 2 hr): 0.94%
% dose/organ, pancreas ([2]; 2 hr): 0.25%
% dose/organ, spleen ([2]; 2 hr): 0.88%
% dose/organ, blood ([2]; 2 hr): 2.46%
% dose/organ, muscle ([2]; 2 hr): 17.7%
% dose/organ, brain (brain uptake) ([2]; 6 hr): 0.10%
% dose/organ, kidney ([2]; 6 hr): 0.64%
% dose/organ, liver ([2]; 6 hr): 4.38%
% dose/organ, spleen ([2]; 6 hr): 0.19%
% dose/organ, blood ([2]; 6 hr): 0.61%
% dose/organ, muscle ([2]; 6 hr): 3.43%
% dose/organ, brain (brain uptake) ([2]; 24 hr): 0.02%
% dose/organ, heart ([2]; 24 hr): 0.02%
% dose/organ, kidney ([2]; 24 hr): 0.29%
% dose/organ, liver ([2]; 24 hr): 2.15%
% dose/organ, lung(2) ([2]; 24 hr): 0.04%
% dose/organ, pancreas ([2]; 24 hr): 0.01%
% dose/organ, spleen ([2]; 24 hr): 0.10%
% dose/organ, blood ([2]; 24 hr): 0.13%
% dose/organ, muscle ([2]; 24 hr): 0.74%
distribution in monkey brain (in words) [3]: resembles the distribution observed for F-18 2-fluoro-2-deoxyglucose or for N-13 labeled ammonia, with a higher uptake of the radiopharmaceutical compound in gray matter of the brain than in white matter

C1CCN(CC[Se]CCN2CCCCC2)CC1 [di-β-(piperidinoethyl)-selenide]
partition coefficient pH dependence (in words) ([1]; n-octanol-aqueous medium, pH 6.6 to 7.6): much higher partition coefficient pH dependence
partition coefficient / lipid solubility at the pH of the blood (in words) [1]: less lipid soluble at the pH of the blood
penetration of the blood brain barrier (in words) [2]: capable of penetrating the blood brain barrier
% dose/organ, heart ([2]; 2 min): 3.04%
% dose/organ, kidney ([2]; 2 min): 7.14%
% dose/organ, liver ([2]; 2 min): 12.0%
% dose/organ, lung(2) ([2]; 2 min): 20.0%
% dose/organ, pancreas ([2]; 2 min): 0.62%
% dose/organ, spleen ([2]; 2 min): 0.51%
% dose/organ, brain (brain uptake) [2, 5]: 1.09%
% dose/organ, blood ([2]; 2 min): 4.58%
% dose/organ, muscle ([2]; 2 min): 7.39%
% dose/organ, brain (brain uptake) ([2]; 30 min): 1.49%
% dose/organ, heart ([2]; 30 min): 0.89%
% dose/organ, kidney ([2]; 30 min): 9.21%
% dose/organ, liver ([2]; 30 min): 14.3%
% dose/organ, lung(2) ([2]; 30 min): 2.83%
% dose/organ, pancreas ([2]; 30 min): 1.42%
% dose/organ, spleen ([2]; 30 min): 1.31%
% dose/organ, blood ([2]; 30 min): 0.87%
% dose/organ, muscle ([2]; 30 min): 13.4%
% dose/organ, brain (brain uptake) ([2]; 1 hr): 1.53%
% dose/organ, heart ([2]; 1 hr): 0.35%
% dose/organ, kidney ([2]; 1 hr): 4.43%
% dose/organ, liver ([2]; 1 hr): 16.6%
% dose/organ, lung(2) ([2]; 1 hr): 1.92%
% dose/organ, pancreas ([2]; 1 hr): 1.07%
% dose/organ, spleen ([2]; 1 hr): 0.90%
% dose/organ, blood ([2]; 1 hr): 0.75%
% dose/organ, muscle ([2]; 1 hr): 16.1%
% dose/organ, brain (brain uptake) ([2]; 2 hr): 1.63%
% dose/organ, heart ([2]; 2 hr): 0.19%
% dose/organ, kidney ([2]; 2 hr): 2.89%
% dose/organ, liver ([2]; 2 hr): 15.9%
% dose/organ, lung(2) ([2]; 2 hr): 0.85%
% dose/organ, pancreas ([2]; 2 hr): 0.84%
% dose/organ, spleen ([2]; 2 hr): 1.03%
% dose/organ, blood ([2]; 2 hr): 0.65%
% dose/organ, muscle ([2]; 2 hr): 12.0%
% dose/organ, brain (brain uptake) ([2]; 4 hr): 1.32%
% dose/organ, heart ([2]; 4 hr): 0.16%
% dose/organ, kidney ([2]; 4 hr): 1.53%
% dose/organ, liver ([2]; 4 hr): 16.0%
% dose/organ, lung(2) ([2]; 4 hr): 0.82%
% dose/organ, pancreas ([2]; 4 hr): 0.60%
% dose/organ, spleen ([2]; 4 hr): 0.61%
% dose/organ, blood ([2]; 4 hr): 0.59%
% dose/organ, muscle ([2]; 4 hr): 11.9%
% dose/organ, brain (brain uptake) ([2]; 6 hr): 1.18%
% dose/organ, kidney ([2]; 6 hr): 0.64%
% dose/organ, liver ([2]; 6 hr): 7.66%
% dose/organ, spleen ([2]; 6 hr): 0.34%
% dose/organ, blood ([2]; 6 hr): 0.51%
% dose/organ, muscle ([2]; 6 hr): 11.5%
% dose/organ, brain (brain uptake) ([2]; 24 hr): 0.91%
% dose/organ, heart ([2]; 24 hr): 0.03%
% dose/organ, kidney ([2]; 24 hr): 0.38%
% dose/organ, liver ([2]; 24 hr): 4.79%
% dose/organ, lung(2) ([2]; 24 hr): 0.31%
% dose/organ, pancreas ([2]; 24 hr): 0.11%
% dose/organ, spleen ([2]; 24 hr): 0.10%
% dose/organ, blood ([2]; 24 hr): 0.20%
% dose/organ, muscle ([2]; 24 hr): 2.81%
% dose/organ, brain (brain uptake) ([2]; 3 day): 0.16%
% dose/organ, kidney ([2]; 3 day): 0.12%
% dose/organ, liver ([2]; 3 day): 1.72%
% dose/organ, spleen ([2]; 3 day): 0.01%
% dose/organ, blood ([2]; 3 day): 0.08%
% dose/organ, muscle ([2]; 3 day): 0.40%

Cc1c(I)c(=O)n(-c2ccccc2)n1C [iodoantipyrine]
penetration of brain tissue (in words) ([4]; in vivo): able to penetrate brain tissue
retention in brain (in words) ([4]; within one hour after penetration): almost completely leaves the brain by diffusion
